Our source for the IC50 values is patent US20100324284A1, “PYRROLOPYRIMIDINE DERIVATIVE AS P13K INHIBITOR AND USE THEREOF” (CHUGAI SEIYAKU KABUSHIKI KAISHA, priority 2008, published 2010).

For assay [1], the target named is human PI3K (p110α/p85α) (Homo sapiens, UniProt P42336). In words: Measurement of PI3K inhibitory activity (AlphaScreen GST Detection Kit). Format: biochemical. The settings on record: 10 μM ATP, 4 μM PI(4,5)P2, read-out: Enzyme inhibitory activity (IC50, μM) PI3K α. Here is the method: The inhibitory activity of compounds of the present invention represented by formula (I) was measured with human PI3K (p110α/p85α) prepared in a baculovirus expression system using the AlphaScreen GST Detection Kit (Perkin Elmer, Inc.). A predetermined concentration of the compound of the present invention dissolved in dimethylsulfoxide (DMSO) and PI3K were mixed in a 384-well assay plate and after allowing to stand for 20 minutes at room temperature, 4 μM PI(4,5)P2 (Echelon Corporation) and 10 μM ATP (5 mM Hepes, pH 7.5, 2.5 mM MgCl2) were added to initiate the reaction. After reacting at 37° C. for 15 minutes, GST-GRP1 expressed and purified from Escherichia coli, Anti-GST Acceptor Beads (Perkin Elmer, Inc.), Streptavidin Donor Beads (Perkin Elmer, Inc.) and biotin-PI (3,4,5)P3 (Echelon Corporation) (10 mM Tris-HCl pH 7.4, 150 mM NaCl, 7.5 mM EDTA, 1 mM DTT, 0.1% Tween 20) were added, and after allowing to stand for 1 hour at room temperature, light at 520 to 620 nm emitted as a result of exciting with light at 680 nm was measured with the EnVision measuring instrument (Perkin Elmer, Inc.).
Test Example 1 described above can be performed according to “Analytical Biochemistry, 2003, 313, 234-245; Alexander Gray et al”.

Assay [2] deals with human colon cancer cell line HCT116. In words: Cell proliferation inhibitory activity, HCT116 (Cell Counting Kit-8). In kind it is cell-based. The settings on record: HCT-116, 96 h, HCT116, 4 days. Here is the method:
(§1) The cell proliferation inhibitory activity was measured for compounds of the present invention represented by formula (I). Cancer cell proliferation inhibitory activity was measured using the Cell Counting Kit-8 (Dojindo). 2000 cells each of human colon cancer cell line HCT116 purchased from the American Type Culture Collection (Virginia, USA) were seeded into each well of a 96-well culture plate followed by the addition of a predetermined concentration of the compounds and cultivating in a 5% CO2 environment at 37° C. for 4 days. On the fourth day of cultivating, the Cell Counting Kit-8 solution was added and absorbance (measuring wavelength: 450 nm, reference wavelength: 615 nm) was measured in accordance with the protocol provided with the kit.
Background: Tetrazolium dyes change colour on reduction, which living cells bring about.

Assay [3] has as its system human prostate cancer cell line PC3. In words: Cell proliferation inhibitory activity, PC3 (Cell Counting Kit-8). The settings on record: PC-3, 96 h, PC3, 4 days. In kind it is cell-based. How it is done: as §1
(§2) Cancer cell proliferation inhibitory activity was also measured for human lung cancer cell line NCI-H460 and human prostate cancer cell line PC3 purchased from the American Type Culture Collection.

In assay [4] the test system is human lung cancer cell line NCI-H460. In words: Cell proliferation inhibitory activity, NCI-H460 (Cell Counting Kit-8). In kind it is cell-based. The settings on record: 96 h, NCI-H460, 4 days, read-out: Cell proliferation inhibitory activity (IC50, μM) Non-small cell cancer (NCIH460). Here is the method:
as §1, §2

Chain of human PI3K (p110α/p85α) (P42336 whole entry): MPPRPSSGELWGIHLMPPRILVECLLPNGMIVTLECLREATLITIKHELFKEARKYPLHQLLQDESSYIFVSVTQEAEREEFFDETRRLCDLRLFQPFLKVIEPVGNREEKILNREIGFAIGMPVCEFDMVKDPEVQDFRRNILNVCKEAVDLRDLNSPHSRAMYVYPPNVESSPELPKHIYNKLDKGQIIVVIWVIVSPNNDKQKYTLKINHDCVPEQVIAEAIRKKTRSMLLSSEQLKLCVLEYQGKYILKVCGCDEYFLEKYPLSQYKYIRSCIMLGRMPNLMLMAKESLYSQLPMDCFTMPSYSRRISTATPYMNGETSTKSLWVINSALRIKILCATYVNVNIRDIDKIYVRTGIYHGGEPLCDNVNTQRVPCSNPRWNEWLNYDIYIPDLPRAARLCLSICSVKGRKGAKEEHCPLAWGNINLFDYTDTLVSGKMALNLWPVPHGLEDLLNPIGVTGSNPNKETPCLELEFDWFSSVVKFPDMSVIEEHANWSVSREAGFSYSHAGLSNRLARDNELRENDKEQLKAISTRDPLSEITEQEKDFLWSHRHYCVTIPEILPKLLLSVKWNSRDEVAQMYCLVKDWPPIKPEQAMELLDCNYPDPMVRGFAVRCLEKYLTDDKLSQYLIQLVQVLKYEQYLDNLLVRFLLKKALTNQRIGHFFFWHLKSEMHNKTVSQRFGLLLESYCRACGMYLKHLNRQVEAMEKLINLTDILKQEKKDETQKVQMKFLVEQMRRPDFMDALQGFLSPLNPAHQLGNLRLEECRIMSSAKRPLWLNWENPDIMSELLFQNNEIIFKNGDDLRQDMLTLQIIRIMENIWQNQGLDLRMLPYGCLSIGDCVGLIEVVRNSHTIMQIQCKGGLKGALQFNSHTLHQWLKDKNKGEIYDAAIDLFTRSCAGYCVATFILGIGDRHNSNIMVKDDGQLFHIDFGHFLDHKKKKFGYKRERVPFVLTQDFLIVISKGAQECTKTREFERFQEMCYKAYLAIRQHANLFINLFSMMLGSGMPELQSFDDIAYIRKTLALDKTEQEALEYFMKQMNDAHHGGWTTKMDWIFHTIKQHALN
Chain of human PI3K (p110α/p85α) (P27986 whole entry partner): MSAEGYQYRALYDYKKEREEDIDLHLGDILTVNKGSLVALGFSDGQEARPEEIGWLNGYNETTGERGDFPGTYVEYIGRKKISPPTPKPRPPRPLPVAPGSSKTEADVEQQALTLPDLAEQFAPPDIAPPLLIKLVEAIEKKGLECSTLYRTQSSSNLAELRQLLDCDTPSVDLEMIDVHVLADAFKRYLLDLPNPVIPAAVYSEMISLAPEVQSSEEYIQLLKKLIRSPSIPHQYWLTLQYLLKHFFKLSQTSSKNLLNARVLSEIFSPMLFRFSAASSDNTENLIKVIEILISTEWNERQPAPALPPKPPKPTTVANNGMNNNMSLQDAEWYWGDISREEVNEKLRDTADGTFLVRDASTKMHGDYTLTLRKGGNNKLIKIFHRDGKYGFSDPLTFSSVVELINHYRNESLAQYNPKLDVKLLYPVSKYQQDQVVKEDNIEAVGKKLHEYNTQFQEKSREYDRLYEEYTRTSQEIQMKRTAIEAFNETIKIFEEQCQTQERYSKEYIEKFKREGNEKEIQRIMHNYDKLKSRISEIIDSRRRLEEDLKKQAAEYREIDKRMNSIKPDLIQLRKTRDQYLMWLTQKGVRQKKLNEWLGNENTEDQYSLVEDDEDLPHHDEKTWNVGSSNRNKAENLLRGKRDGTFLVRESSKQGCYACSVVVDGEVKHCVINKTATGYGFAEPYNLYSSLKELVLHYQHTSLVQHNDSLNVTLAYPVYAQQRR

Turning to `CCN1CCN(c2cc(-n3ccc4c(-c5cnc(N)nc5)nc(N5CCOCC5)nc43)ccn2)CC1` [Compound 1-1, 5-{7-[2-(4-Ethyl-piperazin-1-yl)-pyridin-4-yl]-2-morpholin-4-yl-7H-pyrrolo[2,3-d]pyrimidin-4-yl}-pyrimidin-2-ylamine], the IC50 was found to be 0.007 µM in assay [1], 0.12 µM in assay [2], 0.18 µM in assay [3] and 0.071 µM in assay [4].
Taken in the same sequence, the figures for `Cc1ccc(C(=O)N2CCOCC2)cc1-n1ccc2c(-c3cnc(N)nc3)nc(N3CCOCC3)nc21` [Compound 2-1, {3-[4-(2-amino-pyrimidin-5-yl)-2-morpholin-4-yl-pyrrolo[2,3-d]pyrimidin-7-yl]-4-methyl-phenyl}-morpholin-4-yl-methanone] were 0.093 µM, 1.45 µM, 3.18 µM and 1.25 µM.
Taken in the same sequence, the figures for `Nc1ncc(-c2nc(N3CCOCC3)nc3c2ccn3-c2ccc(CN3CCS(=O)(=O)CC3)cc2)cn1` [Compound 3-1, 5-{7-[4-(1,1-dioxo-1λ^6-thiomorpholin-4-ylmethyl)-phenyl]-2-morpholin-4-yl-7H-pyrrolo[2,3-d]pyrimidin-4-yl}-pyrimidin-2-ylamine] were 0.093 µM, 0.57 µM, 0.43 µM and 0.17 µM.
Taken in the same sequence, the figures for `CS(=O)(=O)n1ccc2c(-c3cnc(N)nc3)nc(N3CCOCC3)nc21` [Compound 4-1, 5-(7-methanesulfonyl-2-morpholin-4-yl-7H-pyrrolo[2,3-d]pyrimidin-4-yl)-pyrimidin-2-ylamine] were 0.016 µM, 0.41 µM, 1.14 µM and 0.29 µM.
